Test results: patent US9226913B2, “Methods of treating cancer using a combination of an immunomodulatory compound and an artemisinin or a derivative thereof” (Celgene Corporation, priority 2010, dated 2016)
Like-named read-outs stand apart in the source and are kept apart here.

Experiments:
HCT116^poly cells = assay: MTT proliferation assay, 72 hr (Example 6.2); type: cell-based, human; conditions: HCT116^poly (polyploid extended-passage variant)
Procedure: (§1) To study the effect of each agent on cell growth, cells growing exponentially were added to 96-well plates at a density of 3×10^4/well. Drugs (0.1-100 μM) were then added to the wells, ensuring an equal volume of 200 μl across the plate. Cell number was measured at 72 hr using a standard methylthiazoletetrazolium (MTT)-based assay without modifications as described previously (Gordi et al., 2004, Toxicol. Lett. 147: 99-107). Briefly, MTT (Sigma) was added to each well to give a working concentration of 0.4 mg/ml, and plates returned to the incubator for a further 1 hr. After this time, the medium was aspirated off, 200 μl of DMSO was then added to each well, and plates agitated gently for 5 min before measuring optical density at 540 nm in each well.

A549 cells = assay: MTT proliferation assay, 72 hr (Example 6.2); type: cell-based, human; conditions: A549, 72 h, mean ± SD of at least five experiments
Procedure: (§2) The human cancer cell lines; MCF7 (breast), HCT116 (colon) and A549 (lung) (Cancer Research UK, London, UK), were grown in either DMEM (Sigma) or RPMI (Sigma) media supplemented with 10% foetal bovine serum, 2 mM L-glutamine, 1% penicillin/streptomycin.
as §1

MCF7 cells = assay: MTT proliferation assay, 72 hr (Example 6.2); type: cell-based, human; conditions: MCF7, 72 h, mean ± SD of at least five experiments
Procedure: as §2, §1

HCT116^norm cells [1] = assay: MTT proliferation assay, 72 hr (Example 6.2); type: cell-based, human
Procedure: as §2, §1

HCT116^norm cells [2] = conditions: read-out: concentration required to achieve ~50% cell kill, ART and OXP used simultaneously, ART + OXP combination (ratio 1:2.5)
Description: The combination studies followed an approach previously described (Gordi et al., 2004, Toxicol. Lett. 147: 99-107). HCT116^norm, A549, MCF7 and HCT116^poly cells (5×10^4/well) growing exponentially were reset in fresh culture medium and aliquoted into 96-well plates. ART was the primary drug partner and combined with OXP at an equal ratio of their respective IC50 (eg. ½×IC50 of ART was combined with ½×IC50 of OXP). Fixing this ratio also kept constant the amount of one drug respective to the other. For instance, ART was combined with OXP at a constant ratio of 1:2.5. Cells were incubated for 72 hr in a humidified atmosphere with 5% CO2 in air at 37° C. Cell number was assessed by the MTT assay as described previously. The activities of drug combinations were established by comparing optical density readings from the treated wells with the control wells with no drug treatment, and the natures of drug-drug interactions then assessed by calculating a combination index (CI) by using the median-effect equation, where CI-values of 1 indicated additivity; CI<1 indicated synergy and CI>1 indicated antagonism.

O=C1[O][Pt]2([NH][C@@H]3CCCC[C@H]3[NH]2)[O]C1=O [Oxaliplatin, oxaliplatin]
IC50 (HCT116^poly cells): 5.8 µM | IC50 (A549 cells): 6.2 ± 0.95 µM | IC50 (MCF7 cells): 6.1 ± 1.1 µM | IC50 (HCT116^norm cells [1]; 72 h, MTT, mean ± SD of at least five experiments, listed as OXP, read-out: IC50): 5.3 µM | IC50 (HCT116^norm cells [1]; 72 h, MTT, mean ± SD of at least five experiments, read-out: IC50): 4.05 ± 1.8 µM | IC50 (HCT116^norm cells [1]; single agent, read-out: concentration required to achieve ~50% cell kill, used separately): 4 µM | IC50 (HCT116^norm cells [2]): 1.6 µM
